These results are taken from patent publication US20070264330A1 (priority 2006, published 2007).

Data set [1] can be described thus: Excipient compatibility study with crystalline Form A: Total Related Substance (TRS). It is filed as physicochemical. On the procedure: Binary mixtures of drug with each excipient were prepared by physically mixing 50.0 mg (±2.0 mg) of drug substance with the specified proportion of each excipient. The stability of the drug in the presence of each excipient was studied in dry samples as well as with 30% w/w (relative to bulk drug weight) de-ionized water. Each sample group was stored under the following conditions: 5° C. (for time=0 testing), 40° C./75% RH (relative humidity) one month, and 40° C./75% RH three months.

Data set [2] in a line: Excipient compatibility study with crystalline Form A: HPLC assay of % drug. The class given is physicochemical. How it is done:
Physical mixtures of crystalline Form A and fourteen processing excipients, gelatin and hydroxypropyl methylcellulose capsules, and drug substance alone were prepared. […] Each sample group was stored under the following conditions: 5° C. (for time=0 testing), 40° C./75% RH (relative humidity) one month, and 40° C./75% RH three months. Bulk drug substance was weighed and added to a sample vial. De-ionized water was then measured (0.015 mL) and added to the vials designated as wet samples. The wet samples were then mixed using a vortex mixer for approximately 15 seconds to incorporate the water and the drug. Excipient was then weighed and added to appropriate vials. The contents of each vial were mixed for approximately 15 seconds using a vortex mixer to produce a uniform mixture of (wet or dry) drug/excipient. To prepare the capsule samples, the bulk drug substance was weighed directly into the capsule. The capsules were then placed into appropriate vials. Fifteen microliters of de-ionized water was added to the inside of capsules designated as wet samples. All samples were stored in 20 mL Type I clear glass scintillation vials with foil-lined screw-type vial caps were tightened by hand. Samples were stored in controlled room temperature/humidity until ready for testing. Other sample vials were stored at 40° C./75% RH unprotected from light and tested at one and three months. […] The vials were rinsed several times with diluent and added to the volumetric flasks. The contents of the capsules were transferred to 50 mL volumetric flasks and the capsule shells were also rinsed with diluent. Diluent was added to the volumetric flasks and they were sonicated for 10 minutes, then diluted to volume with diluent. The solutions were further diluted 5.0 mL into a 50 mL volumetric flask and brought to volume with diluent. These diluted solutions were used for the assay. All solutions were filtered through 0.45 micron PTFE filters, with the first 1-2 mL discarded before filling the HPLC autosampler vials. The diluted sample solutions were assayed against a reference standard of drug product prepared in a similar manner.

The nature of data set [3]: In vivo human and non-human animal studies.
Data set [4] can be described thus: Solubility in water of the tartrate salt. The class given is physicochemical. To be noted: tartrate salt versus compound of formula I. The source says:
The tartrate salt of pimavanserin may be prepared as an integrated part of the process for synthesizing the compound as described above by using tartaric acid as the salt forming acid. Alternatively, the tartrate salt may be formed by reaction of the isolated compound of formula I with tartaric acid.

Setting [5] is: wet conditions (30% w/w water added).

For `CC(C)COc1ccc(CNC(=O)N(Cc2ccc(F)cc2)C2CCN(C)CC2)cc1.CC(C)COc1ccc(CNC(=O)N(Cc2ccc(F)cc2)C2CCN(C)CC2)cc1.O=C(O)C(O)C(O)C(=O)O` [#17 Drug Substance], the “Total related substance, 1 month - Dry” value in data set [1] (dry, 1 month 40° C./75% RH) is reported as 1.38. Further, the “Total related substance, 3 month - Dry” value in data set [1] (dry, 3 month 40° C./75% RH) turned out to be 2.72. The “Total related substance, Time 0 - Dry” value in data set [1] (dry, time 0) is 0.35. Moreover, the “Total related substance, 1 month - Wet” value in data set [1] (wet (30% w/w water), 1 month 40° C./75% RH) is recorded as 1.67. Further, in data set [1] (wet (30% w/w water), 3 month 40° C./75% RH), the “Total related substance, 3 month - Wet” value is 3.39. Moreover, in data set [1] (wet (30% w/w water), time 0), the “Total related substance, Time 0 - Wet” value was determined as 0.36. Besides, in data set [2] (dry conditions), the “% Drug One Month 40° C./75% RH” value was 94.9%, the “% Drug Three Months 40° C./75% RH” value is on record as 95.9% and the “% Drug (time = 0)” value was 98.4%. In data set [2] (setting [5]), the “% Drug One Month 40° C./75% RH” value came to 91.2%, the “% Drug Three Months 40° C./75% RH” value stood at 93.5% and the “% Drug (time = 0)” value was found to be 98.5%.
Turning to `CC(C)COc1ccc(CNC(=O)N(Cc2ccc(F)cc2)C2CCN(C)CC2)cc1` [pimavanserin, N-(1-methylpiperidin-4-yl)-N-(4-fluorophenylmethyl)-N′-(4-(2-methylpropyloxy)phenylmethyl)carbamide], the in vivo activity result in data set [3] is “anti-psychotic, anti-dyskinesia, and anti-insomnia activity”.
As to “tartrate salt of N-(4-fluorobenzyl)-N-(1-methylpiperidin-4-yl)-N′-(4-(2-methylpropyloxy)phenylmethyl)carbamide [pimavanserin tartrate]”, the solubility in water entry in data set [4] is “improved solubility in water”.
